Activity and logP data for three compounds are collected here from ChEMBL document CHEMBL3045568, “Novel 2-pyrazoline derivatives as potential anticonvulsant agents” (Med Chem Res, 2013).

The test system of series [1] is Mus musculus. Put plainly: Anticonvulsant activity in albino Mus musculus (mouse) assessed as protection against maximal electroshock-induced seizures at 30 mg/kg, sc after 0.5 hr relative to control. It is filed as functional, organism-based. Set-up: dose 30 mg/kg. (In general: The maximal electroshock test induces tonic seizures with an electrical stimulus.)
Series [2] has as its system Mus musculus. The series is described as follows: Anticonvulsant activity in albino Mus musculus (mouse) assessed as protection against subcutaneous pentylenetetrazol-induced seizures at 30 mg/kg, sc after 4 hr relative to control. It is filed as functional, organism-based. Also on record: dose 30 mg/kg.
Series [3] deals with Mus musculus. The series is described as follows: Neurotoxicity in albino Mus musculus (mouse) assessed as motor impairment at 30 mg/kg, sc after 4 hr relative to control. It is filed as toxicity, organism-based. Also on record: dose 30 mg/kg, route subcutaneous. The following applies: in vivo.
For series [4], the system named is Mus musculus. Put plainly: Anticonvulsant activity in albino Mus musculus (mouse) assessed as protection against maximal electroshock-induced seizures at 30 mg/kg, sc after 4 hr relative to control. Set-up: dose 30 mg/kg. The series is classed as functional, organism-based.
Series [5] deals with Mus musculus. The series is described as follows: Neurotoxicity in albino Mus musculus (mouse) assessed as motor impairment at 30 mg/kg, sc after 0.5 hr relative to control. The series is classed as toxicity, organism-based. Set-up: dose 30 mg/kg, route subcutaneous. Conditions: in vivo.
For series [6], the system named is Mus musculus. The series is described as follows: Anticonvulsant activity in albino Mus musculus (mouse) assessed as protection against subcutaneous pentylenetetrazol-induced seizures at 30 mg/kg, sc after 0.5 hr relative to control. It is filed as functional, organism-based. Set-up: dose 30 mg/kg.
Series [7] relates to Mus musculus. The series is described as follows: Anticonvulsant activity in albino Mus musculus (mouse) assessed as protection against subcutaneous pentylenetetrazol-induced seizures at 100 mg/kg, ip after 4 hr relative to control. The series is classed as functional, organism-based. Also on record: dose 100 mg/kg.
The test system of series [8] is Mus musculus. Put plainly: Neurotoxicity in albino Mus musculus (mouse) assessed as motor impairment at 30 mg/kg, ip after 0.5 hr relative to control. Set-up: dose 30 mg/kg, route intraperitoneal. The series is classed as toxicity, organism-based. Conditions: in vivo.
In series [9] the test system is Mus musculus. The series is described as follows: Neurotoxicity in albino Mus musculus (mouse) assessed as motor impairment at 100 mg/kg, ip after 0.5 hr relative to control. Conditions: in vivo. It is filed as toxicity, organism-based. Set-up: dose 100 mg/kg, route intraperitoneal.
Series [10] relates to Mus musculus. The series is described as follows: Anticonvulsant activity in albino Mus musculus (mouse) assessed as protection against subcutaneous pentylenetetrazol-induced seizures at 30 mg/kg, ip after 0.5 hr relative to control. Set-up: dose 30 mg/kg. It is filed as functional, organism-based.
Series [11] relates to Mus musculus. The series is described as follows: Anticonvulsant activity in albino Mus musculus (mouse) assessed as protection against maximal electroshock-induced seizures at 100 mg/kg, ip after 4 hr relative to control. The series is classed as functional, organism-based. Set-up: dose 100 mg/kg.
For series [12], the system named is Mus musculus. Put plainly: Anticonvulsant activity in albino Mus musculus (mouse) assessed as protection against maximal electroshock-induced seizures at 100 mg/kg, ip after 0.5 hr relative to control. It is filed as functional, organism-based. Set-up: dose 100 mg/kg.
Series [13] relates to Mus musculus. The series is described as follows: Anticonvulsant activity in albino Mus musculus (mouse) assessed as protection against subcutaneous pentylenetetrazol-induced seizures at 30 mg/kg, ip after 4 hr relative to control. The series is classed as functional, organism-based. Also on record: dose 30 mg/kg.
Series [14] concerns Mus musculus. Put plainly: Anticonvulsant activity in albino Mus musculus (mouse) assessed as protection against maximal electroshock-induced seizures at 30 mg/kg, ip after 4 hr relative to control. The series is classed as functional, organism-based. Also on record: dose 30 mg/kg.
In series [15] the test system is Mus musculus. Put plainly: Anticonvulsant activity in albino Mus musculus (mouse) assessed as protection against maximal electroshock-induced seizures at 300 mg/kg, ip after 0.5 hr relative to control. The series is classed as functional, organism-based. Set-up: dose 300 mg/kg.
Series [16] deals with Mus musculus. Put plainly: Neurotoxicity in albino Mus musculus (mouse) assessed as motor impairment at 300 mg/kg, ip after 0.5 hr relative to control. The series is classed as toxicity, organism-based. Set-up: dose 300 mg/kg, route intraperitoneal. Conditions: in vivo.
Series [17] concerns Mus musculus. The series is described as follows: Anticonvulsant activity in albino Mus musculus (mouse) assessed as protection against subcutaneous pentylenetetrazol-induced seizures at 100 mg/kg, ip after 0.5 hr relative to control. It is filed as functional, organism-based. Also on record: dose 100 mg/kg.
The test system of series [18] is Mus musculus. The series is described as follows: Anticonvulsant activity in albino Mus musculus (mouse) assessed as protection against maximal electroshock-induced seizures at 30 mg/kg, ip after 0.5 hr relative to control. The series is classed as functional, organism-based. Also on record: dose 30 mg/kg.
The test system of series [19] is Mus musculus. The series is described as follows: Anticonvulsant activity in albino Mus musculus (mouse) assessed as protection against subcutaneous pentylenetetrazol-induced seizures at 300 mg/kg, ip after 0.5 hr relative to control. Also on record: dose 300 mg/kg. It is filed as functional, organism-based.
Series [20] concerns Mus musculus. The series is described as follows: Neurotoxicity in albino Mus musculus (mouse) assessed as motor impairment at 100 mg/kg, ip after 4 hr relative to control. The series is classed as toxicity, organism-based. Set-up: dose 100 mg/kg, route intraperitoneal. The following applies: in vivo.
The nature of series [21]: Partition coefficient, log P of the compound. The series is classed as physicochemical. The following applies: octanol/water.
For series [22], the system named is Mus musculus. The series is described as follows: Neurotoxicity in albino Mus musculus (mouse) assessed as motor impairment at 300 mg/kg, ip after 4 hr relative to control. The series is classed as toxicity, organism-based. Also on record: dose 300 mg/kg, route intraperitoneal. The following applies: in vivo.
Series [23] has as its system Mus musculus. The series is described as follows: Anticonvulsant activity in albino Mus musculus (mouse) assessed as protection against maximal electroshock-induced seizures at 300 mg/kg, ip after 4 hr relative to control. It is filed as functional, organism-based. Set-up: dose 300 mg/kg.
Series [24] relates to Mus musculus. Put plainly: Anticonvulsant activity in albino Mus musculus (mouse) assessed as protection against subcutaneous pentylenetetrazol-induced seizures at 300 mg/kg, ip after 4 hr relative to control. The series is classed as functional, organism-based. Set-up: dose 300 mg/kg.
Series [25] deals with Mus musculus. Put plainly: Neurotoxicity in albino Mus musculus (mouse) assessed as motor impairment at 30 mg/kg, ip after 4 hr relative to control. It is filed as toxicity, organism-based. Also on record: dose 30 mg/kg, route intraperitoneal. Conditions: in vivo.

The source made the active and inactive calls. The rule behind the calls is not given here.

For `CCC1(c2ccccc2)C(=O)NC(=O)NC1=O` [PHENOBARBITAL], the outcome in the series on Mus musculus [1], in the series with Mus musculus [2], with Mus musculus [4] and in the series with Mus musculus [6] was Active. In addition, the Activity entry in the series on Mus musculus [3] and in the series on Mus musculus [5] was “Non-toxic” in each case.
With `COc1ccc(C2CC(c3ccccn3)=NN2C(N)=S)cc1` (centres undefined), the result in the series with Mus musculus [7], with Mus musculus [10], in the series with Mus musculus [11], in the series with Mus musculus [12], in the series on Mus musculus [13] and in the series with Mus musculus [14] was inactive. The outcome with Mus musculus [15], in the series on Mus musculus [18], with Mus musculus [23] and in the series on Mus musculus [24] was inactive. In addition, the Activity result in the series with Mus musculus [8], in the series with Mus musculus [9], in the series with Mus musculus [16], with Mus musculus [20], in the series on Mus musculus [22] and with Mus musculus [25] was “Non-toxic” throughout. Besides, the outcome in the series with Mus musculus [17] and with Mus musculus [19] was Active. For the same compound, the logP in series [21] stood at 2.82.
As to `NC(=S)N1N=C(c2ccccn2)CC1c1cccc2ccccc12` (centres undefined), the result in the series on Mus musculus [7], in the series with Mus musculus [10], with Mus musculus [13] and in the series with Mus musculus [14] was inactive. For the same compound, the Activity entry in the series with Mus musculus [8], in the series with Mus musculus [9], in the series with Mus musculus [16], with Mus musculus [20], in the series with Mus musculus [22] and in the series on Mus musculus [25] was “Non-toxic” each time. Further, the outcome in the series on Mus musculus [11], in the series on Mus musculus [12], with Mus musculus [15], in the series on Mus musculus [17], in the series on Mus musculus [18] and in the series on Mus musculus [19] was Active. Further, the outcome in the series with Mus musculus [23] and with Mus musculus [24] was Active. For the same compound, in [21], the lipophilicity (logP) came to 4.51.

As a reminder, the logP is a log measure of how a compound divides between an organic and an aqueous phase.
